Reference: patent US20150297652A1, “COMPOSITIONS AND METHODS FOR THEIR DERMATOLOGICAL USE” (VITA NATURALE, LLC, priority 2012, published 2015)

Experiments:
chronic scalp dermatitis = assay: Topical treatment of chronic scalp dermatitis (Subject 3); format: in vivo, human; details: past treatment of the scalp with clobetasol 0.05% solution
Experimental: (§1) A topical composition of the present invention, referred to herein as Composition 1, comprising as active ingredients Albizzia lebbeck (1%), schisandra chinensis (0.1%), and ophiopogon japonicus (2%), as well as petrolatum, water, glycerin, sodium hyaluronate, dimethicone, glyceryl stearate, acrylates, disodium EDTA, capric triglyceride, propanediol, phenoxyethanol, and triethanolamine, was prepared and administered to subjects as follows:
Subject 3 suffered from chronic scalp dermatitis characterized by persistent severe itching and scaling of the scalp. […] Untreated areas were persistently itchy and scaly.

chronic eyelid eczema = assay: Topical treatment of chronic eyelid eczema (Subject 1); format: in vivo, human; details: previously treated with emollients and hydrocortisone
Experimental: as §1, with “follows: Subject 1 suffered from chronic eyelid eczema characterized by persistent severe itching and scaling of the eyelids.” for “follows:”

Structure (SMILES) | adverse side effects (chronic scalp dermatitis) | improvement with previous treatment (chronic eyelid eczema)
C[C@H]1C[C@H]2[C@@H]3CCC4=CC(=O)C=C[C@]4(C)[C@@]3(F)[C@@H](O)C[C@]2(C)[C@@]1(O)C(=O)CCl [clobetasol] | adverse side effects including acne and skin atrophy | 
C[C@]12CCC(=O)C=C1CC[C@@H]1[C@@H]2[C@@H](O)C[C@@]2(C)[C@H]1CC[C@]2(O)C(=O)CO [hydrocortisone] |  | minimal improvement
